Assay results as given in ChEMBL document CHEMBL1201862, “PubChem BioAssay data set” (2004).
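Grown in 96-well plates, cells were treated for 48 hours with each compound at five concentrations. Insufficient inhibition: endpoint recorded as highest concentration tested. GI50: concentration for 50% inhibition of growth.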 Calls of active or inactive are those of the source. Cut-off read from the data, not from the text of the source: active = GI50 up to about 1.1 µM and inactive = higher.

Assays:
Experiment in all cases: NCI anticancer screen, dose series, 48 h
DMS-114 = tested on: DMS-114
KM-20L2 = tested on: KM-20L2
LXFL 529 = tested on: LXFL 529
M19-MEL = tested on: M19-MEL
SNB-78 = tested on: SNB-78
DMS-273 = tested on: DMS-273
RXF 631 = tested on: RXF 631
XF498 = tested on: XF498
HOP-18 = tested on: HOP-18

Measured: GI50

CCN1CC2(C)CC[C@@H](OC)C34[C@@H]2[C@H](OC(C)=O)C2(OCO[C@@]25C[C@H](OC)C2C[C@]3(O)[C@@H]5[C@H]2O)[C@H]14
inactive: DMS-114 > 100 µM | KM-20L2 > 100 µM | LXFL 529 > 100 µM | M19-MEL > 100 µM | SNB-78 > 100 µM

COC(=O)c1[nH]c(=S)[nH]c(=O)c1-c1ccc(Cl)cc1
inactive: DMS-114 > 50 µM | DMS-273 > 50 µM | KM-20L2 > 50 µM | LXFL 529 > 50 µM | M19-MEL > 50 µM | RXF 631 > 50 µM | SNB-78 > 50 µM | XF498 > 50 µM

O=S(O)CCCCSSCCCCSSCCCCS(=O)O
inactive: DMS-114 25.5 µM | DMS-273 42.6 µM | HOP-18 70.1 µM | KM-20L2 > 100 µM | LXFL 529 11.1 µM | M19-MEL 5.53 µM | RXF 631 33.7 µM | SNB-78 15.7 µM | XF498 6.41 µM

CC(=O)Nc1ccc(/C=N\N2C(=O)c3ccccc3C2=O)cc1
inactive: DMS-114 > 100 µM | DMS-273 > 100 µM | HOP-18 > 100 µM | KM-20L2 > 100 µM | LXFL 529 > 100 µM | M19-MEL > 100 µM | SNB-78 > 100 µM | XF498 > 100 µM

O=C1Nc2ccc([N+](=O)[O-])cc2/C1=N/Nc1ccc([N+](=O)[O-])cc1
inactive: DMS-114 19.9 µM | DMS-273 10.7 µM | KM-20L2 17.8 µM | LXFL 529 12.4 µM | M19-MEL 16.1 µM | RXF 631 24.7 µM | XF498 16.7 µM

Nc1nc2c(-c3ccc([N+](=O)[O-])cc3)nnn2c2ccccc12
inactive: DMS-273 > 100 µM | HOP-18 > 100 µM | LXFL 529 > 100 µM | M19-MEL > 100 µM | SNB-78 81.1 µM | XF498 78.5 µM

CC1(C)CC23C(=O)N(c4ccccc4)C(Nc4ccccc4)=NC2=CC(C#N)=C(C#N)C3O1 (stereo not given)
inactive: DMS-114 42.5 µM | KM-20L2 > 100 µM | LXFL 529 > 100 µM | M19-MEL 94.6 µM | RXF 631 > 100 µM | SNB-78 > 100 µM | XF498 > 100 µM

Cc1c(NC(=S)NC(=O)c2ccc([N+](=O)[O-])cc2)c(=O)n(-c2ccccc2)n1C
inactive: DMS-114 > 100 µM | DMS-273 > 100 µM | HOP-18 > 100 µM | KM-20L2 > 100 µM | LXFL 529 > 100 µM | M19-MEL > 100 µM | SNB-78 > 100 µM

Cc1nnc2n1N=C(c1ccccc1)C(c1ccccc1)S2 (stereo not given)
inactive: DMS-114 25.5 µM | DMS-273 22.3 µM | HOP-18 60.7 µM | KM-20L2 27.4 µM | LXFL 529 29.4 µM | M19-MEL 43.8 µM | SNB-78 55.5 µM | XF498 > 100 µM

COc1ccccc1-n1c(NN)nc2ccc(Br)cc2c1=O
inactive: DMS-114 33.6 µM | DMS-273 35.1 µM | HOP-18 5.18 µM | KM-20L2 39.9 µM | LXFL 529 24.3 µM | M19-MEL 42.5 µM | RXF 631 45.3 µM | SNB-78 47.6 µM | XF498 28.5 µM

COC1OC(CO)C(O)C(OC(C)=O)C1NC(=O)N(CCCl)N=O (stereo not given)
inactive: DMS-114 > 100 µM | DMS-273 > 100 µM | HOP-18 > 100 µM | KM-20L2 > 100 µM | LXFL 529 > 100 µM | M19-MEL > 100 µM | RXF 631 > 100 µM | SNB-78 > 100 µM | XF498 > 100 µM

COc1ccc2ccccc2c1C1OC(=O)c2ccccc21 (stereo not given)
inactive: DMS-114 53.3 µM | DMS-273 86.9 µM | HOP-18 > 100 µM | KM-20L2 > 100 µM | M19-MEL > 100 µM | RXF 631 > 100 µM | SNB-78 > 100 µM
